# Measurements reported in patent US20160229893A1, “Novel Peptide Compound for Inhibiting Restenosis and Promoting Re-Endothelialization and Method for Preparing the Same” (Chonnam National University Hospital, priority 2014, published 2016).
# Tested on: vascular smooth muscle cell (SMC)
# Experiment: Effect on proliferation of vascular smooth muscle cell (SMC), XTT assay
# Format: cell-based
# Settings: 1 uM; XTT absorbance at 450 nm at 1, 4 and 7 days; versus untreated control (FIG. 1)
# Protocol: As cells used in a cell culture, the vascular smooth muscle cell (SMC) which is a smooth muscle cell, and the human umbilical vein endothelial cell (HUVEC) which is the cell for promoting vascular re-endothelialization were purchased from Korea Cell Line Bank, respectively. The cell culture was performed by culturing the vascular smooth muscle cell (SMC) and the human umbilical vein endothelial cell (HUVEC) in Dulbecoco's modified eagle medium (DMEM) with 10% fetal bovine serum (FBS) under conditions of 37° C. and 5% CO2. […]
# (§1) 5×10^4 of SMC cells cultured according to Example 2 were cultured in the 24-well cell culture plate and then treated with 1 uM of the peptide compound prepared by Example 2 (hereinafter, referred to as ‘EVR-P’). […] After the reaction, 200 ul of the culture medium was transferred from each well to a 96 well cell culture dish, and degree of color change was measured from absorbance at a 450 nm wavelength by a spectroscopy.
# as §1, with “the known Everolimus (EVR)(LC Laboratories).” for “the peptide compound prepared by Example 2 (hereinafter, referred to as ‘EVR-P’).”, “to the” for “to a”
smiles,measurement,value
"CO[C@H]1C[C@@H]2CC[C@@H](C)[C@@](O)(O2)C(=O)C(=O)N2CCCC[C@H]2C(=O)O[C@H]([C@H](C)C[C@@H]2CC[C@@H](OCCO)[C@H](OC)C2)CC(=O)[C@H](C)/C=C(\C)[C@@H](O)[C@@H](OC)C(=O)[C@H](C)C[C@H](C)/C=C/C=C/C=C/1C [EVR, Everolimus]",SMC cell proliferation,cell proliferation was inhibited
